Converted amounts (≈) assume the structure as drawn. Like-named read-outs stand apart in the source and are kept apart here.
Tests used:
[1] = test system: tobacco mosaic virus (TMV); experiment: Anti-TMV curative activity (treatment mode), live friction inoculation on tobacco seedlings; assay type: in vivo; conditions: for inhibition at 100 µg/mL: Tobacco mosaic virus, read-out: Anti-TMV activity, Curative effect (inhibition), 100 μg/mL, tobacco seedlings, checked on seventh day
[2] = test system: tobacco mosaic virus (TMV); experiment: Anti-TMV inactivation activity (inactivation mode), compound mixed with TMV before inoculation of tobacco leaves; assay type: in vivo; conditions: Tobacco mosaic virus, read-out: Anti-TMV activity, Inactivation effect (inhibition)
[3] = test system: tobacco mosaic virus (TMV); experiment: Anti-TMV protective activity (protection mode), live friction inoculation on tobacco seedlings; assay type: in vivo; conditions: Tobacco mosaic virus, read-out: Anti-TMV activity, Protection effect (inhibition)
[4] = test system: tobacco mosaic virus (TMV); experiment: Anti-TMV inducing activity (induction mode), tobacco seedlings; assay type: in vivo; conditions: Tobacco mosaic virus, read-out: Anti-TMV activity, Induction effect (inhibition), 100 μg/mL, tobacco seedlings
Alternaria solani = experiment: Fungicidal activity, fungi growth rate method, AS; assay type: cell-based; conditions: Alternaria solani; 50 μg/mL; read-out: Fungicidal activity, inhibition, AS
Botrytis cinerea = experiment: Fungicidal activity, fungi growth rate method, BC; assay type: cell-based; conditions: Botrytis cinerea, 50 μg/mL
Cercospora arachidicola = experiment: Fungicidal activity, fungi growth rate method, CA; assay type: cell-based; conditions: Mycosphaerella arachidis, 50 μg/mL
wheat Gibberella zeae = experiment: microbe, parasite or virus in culture; assay type: cell-based; conditions: Fusarium graminearum
[5] = test system: Phytophthora infestans (Mont) de Bary; experiment: microbe, parasite or virus in culture; assay type: cell-based; conditions: Phytophthora infestans
Physalospora piricola = experiment: Fungicidal activity, fungi growth rate method, PP; assay type: cell-based; conditions: 50 μg/mL
Pellicularia sasakii = experiment: Fungicidal activity, fungi growth rate method, PS; assay type: cell-based; conditions: 50 μg/mL
Rhizoctonia cerealis = experiment: Fungicidal activity, fungi growth rate method, RC; assay type: cell-based; conditions: Ceratobasidium cereale; 50 μg/mL; read-out: Fungicidal activity, inhibition, RC
Sclerotinia sclerotiorum = experiment: microbe, parasite or virus in culture; assay type: cell-based; conditions: Sclerotinia sclerotiorum; for inhibition at 50 µg/mL: 50 μg/mL; for EC90: read-out: EC90 against S. sclerotiorum in vitro
[6] = read-out: Fungicidal activity, inhibition, BC
[7] = read-out: Fungicidal activity, inhibition, CA
[8] = read-out: Fungicidal activity, inhibition, GZ
[9] = read-out: Fungicidal activity, inhibition, PI
[10] = read-out: Fungicidal activity, inhibition, PP
[11] = read-out: Fungicidal activity, inhibition, PS
[12] = read-out: Fungicidal activity (inhibition) against SS: Sclerotinia sclerotiorum
[13] = read-out: Fungicidal activity, inhibition, SS

Row | SMILES | inhibition at 100 µg/mL [1] | inhibition at 100 µg/mL [2] | inhibition at 100 µg/mL [3] | inhibition at 100 µg/mL [4] | inhibition at 50 µg/mL (Alternaria solani) | inhibition at 50 µg/mL (Botrytis cinerea; [6]) | inhibition at 50 µg/mL (Cercospora arachidicola; [7]) | inhibition at 50 µg/mL (wheat Gibberella zeae; [8]) | inhibition at 50 µg/mL [5, 9] | inhibition at 50 µg/mL (Physalospora piricola; [10]) | inhibition at 50 µg/mL (Pellicularia sasakii; [11]) | inhibition at 50 µg/mL (Rhizoctonia cerealis) | inhibition at 50 µg/mL (Sclerotinia sclerotiorum; [12]) | inhibition at 50 µg/mL (Sclerotinia sclerotiorum; [13]) | melting point | also measured
1 | O=C(N/C(=C\c1ccccc1)C(=O)N1CCC(O)(c2ccc(Br)cc2)CC1)C1CC1 [Compound 1, (Z)-N-[1-[[4-(4-bromophenyl)-4-hydroxy-1-piperidinyl]carbonyl]-2-phenylethenyl]cyclopropanecarboxamide] | 53% | 83% | 48% | 11% | 21% | 21% | 16% | 26% | 27% | 10% | 14% | 29% | 80 to 95% | 83% | 163 to 164 °C | Anti-TMV activity, Curative effect (inhibition) ([1]; 100 μg/mL, tobacco seedlings, checked on seventh day): 54%
2 | O=C(N/C(=C\c1ccccc1)C(=O)N1CCC(O)(c2ccc(Br)cc2)CC1)C1CCCCC1 [Compound 2, (Z)-N-[1-[[4-(4-bromophenyl)-4-hydroxy-1-piperidinyl]carbonyl]-2-phenylethenyl]cyclohexanecarboxamide] | 50% | 81% | 43% | 77% | 15% | 15% | 12% | 22% | 23% | 7% | 19% | 16% | 100% | 100% | 124 to 126 °C | EC90 (Sclerotinia sclerotiorum): 565 µg/mL (≈ 1110 µM)
3 | CC(C)(C)OC(=O)N1CCC(C(=O)N/C(=C\c2ccccc2)C(=O)N2CCC(O)(c3ccc(Br)cc3)CC2)CC1 [Compound 3, (Z)-N-[1-[[4-(4-bromophenyl)-4-hydroxy-1-piperidinyl]carbonyl]-2-phenylethenyl]-1-Boc-piperidine-4-carboxamide] | 59% | 14% | 51% | 0% | 32% | 24% | 25% | 34% | 19% | 21% | 23% | 26% | 60 to 80% | 75% | 145 to 147 °C | 
4 | COc1ccc(C(=O)N/C(=C\c2ccccc2)C(=O)N2CCC(O)(c3ccc(Br)cc3)CC2)cc1 [Compound 5, (Z)-N-[1-[[4-(4-bromophenyl)-4-hydroxy-1-piperidinyl]carbonyl]-2-phenylethenyl]-4-methoxybenzamide] | 1% | 49% | 48% | 2% | 13% | 13% | 9% | 11% | 18% | 7% | 13% | 7% | 60 to 80% | 80% | 195 to 197 °C | 
5 | O=C(N/C(=C\c1ccccc1)C(=O)N1CCC(O)(c2ccc(Br)cc2)CC1)c1ccc(F)cc1 [Compound 6, (Z)-N-[1-[[4-(4-bromophenyl)-4-hydroxy-1-piperidinyl]carbonyl]-2-phenylethenyl]-4-fluorobenzamide] | 15% | 50% | 45% | 6% | 31% | 48% | 49% | 44% | 50% | 49% | 54% | 51% |  | 96% | 129 to 130 °C | inhibition at 50 µg/mL (Botrytis cinerea; read-out: Fungicidal activity (inhibition) against BC: Botrytis cinerea): 48%; inhibition at 50 µg/mL (Cercospora arachidicola; read-out: Fungicidal activity (inhibition) against CA: Cercospora arachidicola): 49%; inhibition at 50 µg/mL ([5]; read-out: Fungicidal activity (inhibition) against PI: Phytophthora infestans (Mont) de Bary): 50%; inhibition at 50 µg/mL (Physalospora piricola; read-out: Fungicidal activity (inhibition) against PP: Physalospora piricola): 49%; inhibition at 50 µg/mL (Pellicularia sasakii; read-out: Fungicidal activity (inhibition) against PS: Pellicularia sasakii): 54%; EC90 (Sclerotinia sclerotiorum): 218 µg/mL (≈ 416 µM)
6 | O=C(N/C(=C\c1ccccc1)C(=O)N1CCC(O)(c2ccc(Br)cc2)CC1)c1ccc(Cl)cc1 [Compound 7, (Z)-N-[1-[[4-(4-bromophenyl)-4-hydroxy-1-piperidinyl]carbonyl]-2-phenylethenyl]-4-chlorobenzamide] | 39% | 31% | 50% | 1% | 25% | 21% | 18% | 71% | 16% | 12% | 20% | 18% |  | 44% | 193 to 194 °C | inhibition at 50 µg/mL (wheat Gibberella zeae; read-out: Fungicidal activity (inhibition) against GZ: wheat Gibberella zeae): 71%
7 | O=C(N/C(=C\c1ccccc1)C(=O)N1CCC(O)(c2ccc(Br)cc2)CC1)c1ccc(Br)cc1 [Compound 8, (Z)-N-[1-[[4-(4-bromophenyl)-4-hydroxy-1-piperidinyl]carbonyl]-2-phenylethenyl]-4-bromobenzamide] | 0% | 19% | 1% | 50% | 21% | 18% | 18% | 29% | 26% | 6% | 20% | 23% |  | 50% | 186 to 188 °C | 

Reference: patent US11166460B2, “α-amino acrylate microbicide, and preparation method therefor and uses thereof” (priority 2017, dated 2021)
